Experimental data reported in patent US20170095512A1, “METHODS OF INDUCING MYELINATION AND MATURATION OF OLIGODENDROCYTES” (KADIMASTEM LTD., priority 2014, published 2017).

Tested on: glial progenitor cells derived from human ES cells (Olig2 positive cells)
Assay: hOPC differentiation assay, Olig2 positive cells (immunostaining, high content screening)
Assay type: cell-based
Conditions: PDGF 20 ng/ml added during LDN-193189 dose-response assay, 21 days
Method: In order to initiate differentiation 20,000 GPCs were seeded in each well of Matrigel coated plates of 96 wells, or on PolyD-Lysine/laminin (PDL/lam)-coated 96 well plates. Cells were grown in GM media for two to three days. Then GM was replaced by differentiation medium without growth factors, (DMEM/F12, 1% B27, 0.5% N2, Vitamin C (Sigma, 50 ug/ml). Differentiation medium was supplemented with the following tested compounds: […] All media were replaced every other day. The oligodendrocyte lineage cells were characterized by the expression of a transcription factor olig2. The rabbit polyclonal AB anti olig2 (Millipore cat AB9610) was added to PFA fixed cells. […] The fixed cells were washed three times in blocking solution, olig2 diluted 1/500, in blocking solution, was added for 1 hour. The fixed cells were washed with PBS 3 times and goat anti rabbit Alexa Fluor 568 1/500 in PBS was added for 45 minutes. The fixed cells were washed three times. ArrayScan VTI HCS reader system (Cellomis, Thermo-scientific) was used for scanning at least 20 fields for each tested well under 10× objective in both assays (differentiation and myelination). Cellomics Neural profiling bio-application was used for processing and analyzing the images. For differentiation assay, the following parameters were tested: number and percentage of O4+ cells, number of processes, processes length and number of branching points. For myelination assay, the same morphological parameters were tested and in addition: areas of myelinated axons in pixels (MBP&NF overlap area) and Number of myelinated regions (MBP&NF overlap count) were also analyzed. Modifications in the Neuro-profiling bio-application were conducted for this specific purpose. T-test analysis was used to compare between treatments. The 4-parameter Hill-Slope curve fittings were generated by GraphPad Prism software using least squares fitting method and EC50 values were calculated. […] The cells at passage five were cultured for three days with GM on 96 well plates and after fixation, cells were reacted with anti-olig2 Ab, and olig2 positive cells and nuclei were scanned in the Thermo Scientific™ ArrayScan™ XTI High Content Analysis (HCA) Reader and counted with the neural profiling program. On the other hand the cells surface antigens O4 and PDGFRa were detected on dissociated cells after fixation and reaction with O4 Ab conjugated to APC, anti PDGFRa PE, as well as A2B5 PE all obtained from BD. Flow cytometry was conducted in BD FACS Canto II. […] Time points used for analysis are 21, 28, 35 and 42 days of differentiation, for each time point 20 fields were analyzed. […] In this experiment, cells at passage 4 were pretreated in differentiation medium with Noggin for 14 days, and split before seeding on 96 well plates.

For PDGF: human recombinant PDGFAA (R&D), the “number of olig2 positive cells on addition of PDGF” value was “increases the number of olig2 positive cells about two folds”.
